Assay results as given in patent EP2181589A1, “Neurotoxic sterol glycosides” (Shaw, Christopher Ariel, priority 2008, dated 2010).

Columns and labels:
CD-1 mice [1] = assay: Open field monitoring; type: in vivo; details: SG-fed vs control
Description: (§1) Five-month old male CD-1 mice (30.1-35.7 g, 7.5 cm - 8.8 cm) were purchased from Charles River (Wilmington, MA). Adult mice were chosen to mimic the mean age of onset of ALS-PDC (Kurland, 1988; Kurland et al., 1994). Thirty mice for the SG study were randomly divided into 2 groups (14 control and 16 experimental animals). All animals were housed singly in a virus-free barrier facility in a room maintained at 22°C under a 12 hour light/dark cycle. The mice were provided ad libitum access to food and water.
(§2) The synthetic SG was mixed with finely ground Purina Chow mouse pellets (Mouse Diet™, Purina) to create the experimental pellets with a SG content of 1000 µg per pellet. Dry materials were blended with a sterile silicon spatula. For every 5 g of standard feed, 2.5 mL of doubly-distilled water (dd)H2O was added and the dough was kneaded and round up into pellets. A single sterol glucoside containing pellet was placed in the feeding tray each morning before the addition of regular mouse chow (ad libitum). All experimental pellets were entirely consumed by the mice each day. Control mice were fed standard mouse chow pellets of identical weight with no additives. SG feeding was conducted daily for 15 weeks and mice were behaviorally monitored until sacrifice at 35 weeks (time point 1) or 52 weeks (time point 2).
Open field monitoring: Spontaneous activity in an open field is considered one of the most standardized general measures of motor function (Crawley, 2000). The open field test can also reveal stress response in animals (i.e. defensive burying or thigmotaxis) (Karl et al., 2003). Open field testing of each animal was conducted every two weeks. A single mouse was placed in one of four round open field arena/tubs (approximately 1 m diameter) to permit the testing of four animals per 5 minute trial. […] This in turn, increases the likelihood of detection of fear-based behavior (Crawley, 2000) and minimizes habituation of the animal to the open field (Crawley, 2000). Testing arenas were cleaned with 70% ethanol before the testing of each animal and with quatricide at the end of each testing session. Movements were recorded using a video camera mounted on the ceiling. Video clips were reviewed and were manually scored or automatically analysed on an automated video tracking software (Ethovision® 3.1, Noldus Information Technologies Inc., Leesburg, VA, USA). Scoring was done on videotaped sessions, rather than in-person at the time of testing to avoid the introduction of confounding variables by the presence of an observer in close proximity to the mice (Crawley, 2000).

CD-1 mice [2] = assay: Gait analysis (Digigait); type: in vivo; details: SG-fed vs control
Description: as §1, §2
Gait analysis: In order to examine spatial and temporal indices of front and hind limb stepping patterns during forward locomotion, mice were required to run on a colorless (PVC and polycarbonate), straight, level, walled motorized belt (Digigait™, treadmill motor: DC, HP; torque 45 1b-in, Mouse Specifics, Inc., Boston, MA, USA) set at 30 rpm with a no-flicker light source (90-250 VAC; 25 kHZ, Mouse Specifics, Inc., Boston, MA, USA) and camera mounted ventrally (relative to the animal) to facilitate continuous ventral plane videography (up to 150 frames per second) of activity. Gait indices were analyzed with the complementary digital imaging software (Digigait™, Mouse Specifics, Inc., Boston, MA, USA) as per manufacturer's instructions. Briefly, the software converts "paw prints" into a digital signal and generates a temporal record of paw placement and breaks down the digital file into three main parameters: stride duration, swing duration, and stance duration. The stance duration is the period during which the paw of a limb is in contact with the belt surface. The software further subdivides the stance duration into two components: braking duration (the increase in paw contact area over a discrete time interval) and propulsion duration (the decrease in paw contact area over a discrete time interval). The swing duration is the period of time that a paw is not in contact with the belt surface. In addition to these factors, over a dozen additional characteristics, including stance factor, step-sequence pattern, propulsion, and cadence are generated to provide a spreadsheet format report of twenty-five gait indices.

SMILES: CCC(C=CC(C)C1CCC2C3CC=C4CC(OC5OC(CO)C(O)C(O)C5O)CCC4(C)C3CCC12C)C(C)C (stereo not drawn) [SG]
- Total distance moved (CD-1 mice [1]; time-point 1, 35 wk): Total distance moved (ns)
- Total distance to zone border (CD-1 mice [1]; time-point 1, 35 wk): Total distance to zone border (ns)
- Total turn angle (CD-1 mice [1]; time-point 1, 35 wk): Total turn angle (ns)
- Total distance to zone border (CD-1 mice [1]; time-point 2, 52 wk): Total distance to zone border* (*p<0.05)
- Forelimb braking (CD-1 mice [2]; time-point 1, 35 wk): Forelimb braking (ns)
- Forelimb propulsion (CD-1 mice [2]; time-point 1, 35 wk): Forelimb propulsion (ns)
- Forelimb stance width (CD-1 mice [2]; time-point 1, 35 wk): Forelimb stance width (ns)
- Forelimb stride length (CD-1 mice [2]; time-point 1, 35 wk): Forelimb stride length (ns)
- Hind limb braking (CD-1 mice [2]; time-point 1, 35 wk): Hind limb braking (ns)
- Hind limb propulsion (CD-1 mice [2]; time-point 1, 35 wk): Hind limb propulsion (ns)
- Hind limb stance width (CD-1 mice [2]; time-point 1, 35 wk): Hind limb stance width (ns)
- Hind limb stride frequency (CD-1 mice [2]; time-point 1, 35 wk): Hind limb stride frequency (ns)
- Hind limb stride length (CD-1 mice [2]; time-point 1, 35 wk): Hind limb stride length (ns)
- Forelimb braking (CD-1 mice [2]; time-point 2, 52 wk): Forelimb braking* (*p<0.05)
- Forelimb propulsion (CD-1 mice [2]; time-point 2, 52 wk): Forelimb propulsion* (*p<0.05)
- Hind limb braking (CD-1 mice [2]; time-point 2, 52 wk): Hind limb braking* (*p<0.05)
- Hind limb propulsion (CD-1 mice [2]; time-point 2, 52 wk): Hind limb propulsion* (*p<0.05)
- Hind limb stride frequency (CD-1 mice [2]; time-point 2, 52 wk): Hind limb stride frequency* (*p<0.05)
